Measurements taken from patent publication US11453647B2, “Benzimidazole derivatives as adenosine receptor antagonists” (Merck Patent GmbH, priority 2017, dated 2022).

Key:
Type in all cases: cell-based
A2B receptors = target: T1, A2B receptors (Homo sapiens, UniProt P29275); test: functional cAMP (HTRF) assay, recombinant HEK293 cells expressing human A2B receptor, agonist NECA; set-up: expressed in transfected cells; host or cells: HEK293
T1 sequence (P29275 1-332): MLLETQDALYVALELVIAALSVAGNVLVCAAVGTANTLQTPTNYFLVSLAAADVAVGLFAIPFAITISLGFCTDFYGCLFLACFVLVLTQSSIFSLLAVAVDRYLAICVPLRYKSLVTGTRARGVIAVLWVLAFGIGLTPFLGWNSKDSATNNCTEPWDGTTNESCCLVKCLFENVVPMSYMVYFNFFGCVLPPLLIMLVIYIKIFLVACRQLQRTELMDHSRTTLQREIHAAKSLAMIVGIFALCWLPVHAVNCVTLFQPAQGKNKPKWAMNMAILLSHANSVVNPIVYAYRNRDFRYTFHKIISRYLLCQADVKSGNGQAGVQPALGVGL

human A3 receptor = target: T2, human A3 receptor (Homo sapiens, UniProt P0DMS8); test: functional cAMP (HTRF) assay, recombinant CHO cells expressing human A3 receptor, forskolin, agonist IB-MECA
T2 construct: expressed in transfected cells; host or cells: CHO
T2 sequence (P0DMS8 1-318): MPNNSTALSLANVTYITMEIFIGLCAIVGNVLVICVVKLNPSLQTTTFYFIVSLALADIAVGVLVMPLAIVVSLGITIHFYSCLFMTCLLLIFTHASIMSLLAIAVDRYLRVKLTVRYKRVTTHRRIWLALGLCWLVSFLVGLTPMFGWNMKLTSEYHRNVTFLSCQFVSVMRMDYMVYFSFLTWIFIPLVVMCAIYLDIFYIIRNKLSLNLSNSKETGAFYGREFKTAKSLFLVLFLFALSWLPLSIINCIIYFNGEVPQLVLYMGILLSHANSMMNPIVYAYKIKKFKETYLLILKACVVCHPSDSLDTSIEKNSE
Experimental: The functional activities of human A2A, A2B, A1 and A3 receptors were determined by quantification of cAMP, being the second messenger for adenosine receptors.
For human A1 and A3 receptors, recombinant CHO cells, expressing either A1 or A3-receptor, were used. As both receptors couple to Gi proteins, the assay protocol was adapted:
Cells were seeded into 384-well plates, forskolin, test compounds and agonists (CPA for A1- and IB-MECA for A3-receptor) were added. After 30 min incubation, HTRF reagents (cAMP dynamic 2, Cis Bio) were added and the cellular cAMP levels were determined using the ENVISION (Perkin Elmer) plate reader. Obtained raw data were normalized against the inhibitor control and the neural control (DMSO) and the normalized data were fitted using GeneData software.

human A2A receptor = target: T3, human A2A receptor (Homo sapiens, UniProt P29274); test: functional cAMP (HTRF) assay, recombinant HEK293 cells expressing human A2A receptor, agonist NECA
T3 construct: expressed in transfected cells; host or cells: HEK293
T3 sequence (P29274 whole entry): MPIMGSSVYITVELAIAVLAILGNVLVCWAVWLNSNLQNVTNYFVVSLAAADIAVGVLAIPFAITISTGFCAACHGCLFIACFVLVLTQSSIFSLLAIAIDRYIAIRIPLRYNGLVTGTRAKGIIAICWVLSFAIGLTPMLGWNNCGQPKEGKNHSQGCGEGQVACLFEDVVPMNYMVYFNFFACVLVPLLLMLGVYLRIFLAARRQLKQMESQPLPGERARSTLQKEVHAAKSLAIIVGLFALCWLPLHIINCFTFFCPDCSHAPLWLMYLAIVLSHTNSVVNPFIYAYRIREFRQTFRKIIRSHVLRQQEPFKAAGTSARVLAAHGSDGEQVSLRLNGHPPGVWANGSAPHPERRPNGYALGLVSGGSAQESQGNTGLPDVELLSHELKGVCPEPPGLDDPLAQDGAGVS

SMILES	IC50 (A2B receptors)	IC50 (human A3 receptor)	IC50 (human A2A receptor)
COc1ccc(N2CCCOCC2)c2nc(NC(=O)c3ccc(C(=O)N(C)C)cc3)[nH]c12 [compound 313, N4-[7-methoxy-4-(1,4-oxazepan-4-yl)-1H-1,3-benzodiazol-2-yl]-N1,N1-dimethylbenzene-1,4-dicarboxamide]	> 1000 nM	> 1000 nM	< 10 nM
COc1ccc(-c2ccccc2)c2nc(NC(=O)c3c[nH]c(-c4ccncc4)n3)[nH]c12 [compound 290, N-(7-methoxy-4-phenyl-1H-1,3-benzodiazol-2-yl)-2-(pyridin-4-yl)-1H-imidazole-4-carboxamide]	< 100 nM	–	< 100 nM
COCCn1cc(C(=O)Nc2nc3c(-c4ccc5[nH]ccc5c4)ccc(OC)c3[nH]2)cn1 [compound 302, N-[4-(1H-indol-5-yl)-7-methoxy-1H-1,3-benzodiazol-2-yl]-1-(2-methoxyethyl)-1H-pyrazole-4-carboxamide]	< 100 nM	–	< 100 nM
COc1ccc(-c2cnn(C)c2)c2nc(NC(=O)NCc3nccs3)[nH]c12 [compound 247, 3-[7-methoxy-4-(1-methyl-1H-pyrazol-4-yl)-1H-1,3-benzodiazol-2-yl]-1-[(1,3-thiazol-2-yl)methyl]urea]	–	> 1000 nM	< 100 nM
COc1ccc(-c2ccc3[nH]ccc3c2)c2nc(NC(=O)N3CCC(C)(O)CC3)[nH]c12 [compound 303, 4-hydroxy-N-[4-(1H-indol-5-yl)-7-methoxy-1H-1,3-benzodiazol-2-yl]-4-methylpiperidine-1-carboxamide]	–	> 1000 nM	< 100 nM
COc1ccc(-c2cnn(C)c2)c2nc(NC(=O)c3cnc(C)o3)[nH]c12 [compound 215, N-[7-methoxy-4-(1-methyl-1H-pyrazol-4-yl)-1H-1,3-benzodiazol-2-yl]-2-methyl-1,3-oxazole-5-carboxamide]	< 100 nM	–	< 10 nM
COc1ccc(-c2ccccc2)c2[nH]c(NC(=O)c3ccc(C(=O)N(C)CCN(C)C)cc3)nc12 [compound 296, N1-[2-(dimethylamino)ethyl]-N4-(4-methoxy-7-phenyl-1H-1,3-benzodiazo1-2-yl)-N1-methylbenzene-1,4-dicarboxamide]	< 10 nM	< 1000 nM	< 100 nM
COCCn1cc(C(=O)Nc2nc3c(-c4ccc5cc[nH]c5c4)ccc(OC)c3[nH]2)cn1 [compound 280, N-[4-(1H-indol-6-yl)-7-methoxy-1H-1,3-benzodiazol-2-yl]-1-(2-methoxyethyl)-1H-pyrazole-4-carboxamide]	< 100 nM	–	< 100 nM
COc1ccc(-c2cccc3cc[nH]c23)c2nc(NC(=O)N3CCC(C)(O)CC3)[nH]c12 [compound 305, 4-hydroxy-N-[4-(1H-indol-7-yl)-7-methoxy-1H-1,3-benzodiazol-2-yl]-4-methylpiperidine-1-carboxamide]	< 100 nM	> 1000 nM	< 100 nM
CCCNC(=O)c1ccc(C(=O)Nc2nc3c(OC)ccc(-c4ccccc4)c3[nH]2)cc1 [compound 293, N1-(4-methoxy-7-phenyl-1H-1,3-benzodiazol-2-yl)-N4-propylbenzene-1,4-dicarboxamide]	< 100 nM	< 1000 nM	< 100 nM
COc1ccc(-c2cnn(C)c2)c2nc(NC(=O)N[C@@H]3CNC[C@@H]3F)[nH]c12 [compound 249, 1-[(3R,4S)-4-fluoropyrrolidin-3-yl]-3-[7-methoxy-4-(1-methyl-1H-pyrazol-4-yl)-1H-1,3-benzodiazol-2-yl]urea]	–	–	< 100 nM
COc1ccc(-c2cnn(C)c2)c2nc(NC(=O)C3CNC(=O)C3)[nH]c12 (stereo not drawn) [compound 246, N-[7-methoxy-4-(1-methyl-1H-pyrazol-4-yl)-1H-1,3-benzodiazol-2-yl]-5-oxopyrrolidine-3-carboxamide]	–	> 1000 nM	< 100 nM
COc1ccc(-c2cnn(CC(C)(C)O)c2)c2[nH]c(NC(=O)N3CCC(C)(O)CC3)nc12 [compound 238, 4-hydroxy-N-{7-[1-(2-hydroxy-2-methylpropyl)-1H-pyrazol-4-yl]-4-methoxy-1H-1,3-benzodiazol-2-yl}-4-methylpiperidine-1-carboxamide]	–	> 1000 nM	< 100 nM
COc1ccc(-c2ccccc2)c2nc(NC(=O)c3cnc4ccccn34)[nH]c12 [compound 286, N-(7-methoxy-4-phenyl-1H-1,3-benzodiazol-2-yl)imidazo[1,2-a]pyridine-3-carboxamide]	< 100 nM	–	< 100 nM
COc1ccc(-c2ccccc2)c2[nH]c(NC(=O)c3ccc(C(=O)N4CCN(C)CC4)cc3)nc12 [compound 294, N-(4-methoxy-7-phenyl-1H-1,3-benzodiazol-2-yl)-4-(4-methylpiperazine-1-carbonyl)benzamide]	< 10 nM	< 1000 nM	< 100 nM
COc1ccc(-c2cccc(F)c2)c2nc(NC(=O)c3cnn(C)c3)[nH]c12 [compound 239, N-[4-(3-fluorophenyl)-7-methoxy-1H-1,3-benzodiazol-2-yl]-1-methyl-1H-pyrazole-4-carboxamide]	< 10 nM	–	< 10 nM
COCCn1cc(C(=O)Nc2nc3c(-c4ccccc4)ccc(OC)c3[nH]2)cn1 [compound 307, N-(7-methoxy-4-phenyl-1H-1,3-benzodiazol-2-yl)-1-(2-methoxyethyl)-1H-pyrazole-4-carboxamide]	< 10 nM	–	< 100 nM
COc1ccc(-c2ccccc2)c2nc(NC(=O)c3cnc4cccnn34)[nH]c12 [compound 288, N-(7-methoxy-4-phenyl-1H-1,3-benzodiazol-2-yl)imidazo[1,2-b]pyridazine-3-carboxamide]	< 100 nM	< 1000 nM	< 100 nM
COc1ccc(-c2ccccc2)c2nc(NC(=O)c3ccc(F)cc3)[nH]c12 [compound 2, 4-Fluoro-N-(7-methoxy-4-phenyl-1H-benzoimidazol-2-yl)-benzamide]	< 100 nM	< 10 nM	< 10 nM
COc1ccc(-c2ccccc2)c2nc(NC(=O)N3CCC(C)CC3)[nH]c12 [compound 28, 4-Methyl-piperidine-1-carboxylic acid (7-methoxy-4-phenyl-1H-benzoimidazol-2-yl)-amide]	< 1000 nM	< 1000 nM	< 10 nM
COc1ccc(-c2ccccc2)c2nc(NC(=O)c3cnn(C)c3)[nH]c12 [compound 306, N-(7-methoxy-4-phenyl-1H-1,3-benzodiazol-2-yl)-1-methyl-1H-pyrazole-4-carboxamide]	< 10 nM	–	< 100 nM
COc1ccc(-c2ccccc2)c2nc(NC(=O)c3cnc4ncccn34)[nH]c12 [compound 289, N-(7-methoxy-4-phenyl-1H-1,3-benzodiazol-2-yl)imidazo[1,2-a]pyrimidine-3-carboxamide]	< 10 nM	–	< 100 nM
COc1ccc(C2CCOCC2)c2nc(NC(=O)c3cccc(N=S(C)(C)=O)c3)[nH]c12 [compound 263, 3-{[dimethyl(oxo)-lambda6-sulfanylidene]amino}-N-[7-methoxy-4-(oxan-4-yl)-1H-1,3-benzodiazol-2-yl]benzamide]	–	> 1000 nM	< 100 nM
COc1ccc(-c2ccccc2)c2nc(NC(=O)c3ccc(C(=O)N(C)C)cc3)[nH]c12 [compound 309, N4-(7-methoxy-4-phenyl-1H-1,3-benzodiazol-2-yl)-N1,N1-dimethylbenzene-1,4-dicarboxamide]	< 10 nM	–	< 100 nM
COCCn1cc(C(=O)Nc2nc3c(-c4ccn5ccnc5c4)ccc(OC)c3[nH]2)cn1 [compound 301, N-(4-{imidazo[1,2-a]pyridin-7-yl}-7-methoxy-1H-1,3-benzodiazol-2-yl)-1-(2-methoxyethyl)-1H-pyrazole-4-carboxamide]	–	< 1000 nM	< 100 nM
COc1cc(C#N)c(-c2ccccc2)c2nc(NC(=O)c3cnn(C)c3)[nH]c12 [compound 300, N-(5-cyano-7-methoxy-4-phenyl-1H-1,3-benzodiazol-2-yl)-1-methyl-1H-pyrazole-4-carboxamide]	< 100 nM	–	< 100 nM
COc1ccc(-c2ccnc(C)c2)c2[nH]c(NC(=O)c3c[nH]cn3)nc12 [compound 299, N-[4-methoxy-7-(2-methylpyridin-4-yl)-1H-1,3-benzodiazol-2-yl]-1H-imidazole-4-carboxamide]	< 100 nM	–	< 100 nM
COc1ccc(-c2ccccc2)c2nc(NC(=O)c3cnc(C)o3)[nH]c12 [compound 308, N-(7-methoxy-4-phenyl-1H-1,3-benzodiazol-2-yl)-2-methyl-1,3-oxazole-5-carboxamide]	< 100 nM	–	< 100 nM
